Tests used:
[1] = Approximate solubility of amorphous everolimus in solvents; assay type: physicochemical; settings: room temperature
Method: Approximate solubilities of amorphous everolimus were determined by adding the drug gradually with stirring at room temperature to a fixed volume of the solvent until solid remained visible.

[2] = Comparative aqueous solubility of amorphous and crystalline everolimus (FIG. 3); assay type: physicochemical; settings: aqueous solubility at body temperature (37° C.)
Text: FIG. 3 is a graph showing the relative water solubilities of the amorphous and crystalline forms of everolimus.

| Amorphous Everolimus Solubilities ([1]; solvent ACN/water 3:2 v/v) | Amorphous Everolimus Solubilities ([1]; solvent ACN) | Amorphous Everolimus Solubilities ([1]; solvent Acetone) | Amorphous Everolimus Solubilities ([1]; solvent DCM) | Amorphous Everolimus Solubilities ([1]; solvent DMF/DCM w/w) | Amorphous Everolimus Solubilities ([1]; solvent DMF/EtOAc w/w) | Amorphous Everolimus Solubilities ([1]; solvent DMF/THF w/w) | Amorphous Everolimus Solubilities ([1]; solvent DMF) | Amorphous Everolimus Solubilities ([1]; solvent EtOH) | Amorphous Everolimus Solubilities ([1]; solvent IPA) | Amorphous Everolimus Solubilities ([1]; solvent MEK) | Amorphous Everolimus Solubilities ([1]; solvent MTBE) | Amorphous Everolimus Solubilities ([1]; solvent THF) | Amorphous Everolimus Solubilities ([1]; solvent ethyl acetate) | Amorphous Everolimus Solubilities ([1]; solvent m-xylene) | Amorphous Everolimus Solubilities ([1]; solvent n-heptane) | Amorphous Everolimus Solubilities ([1]; solvent p-dioxane) | Amorphous Everolimus Solubilities ([1]; solvent water) | Solubility of crystalline everolimus, times lower than that of amorphous everolimus [2] | SMILES |
| --- | --- | --- | --- | --- | --- | --- | --- | --- | --- | --- | --- | --- | --- | --- | --- | --- | --- | --- | --- |
| ~52 mg/mL | ~100 mg/mL | ~100 mg/mL | ~46 mg/mL | ~142 mg/mL | ~119 mg/mL | ~112 mg/mL | ~49 mg/mL | ~100 mg/mL | ~15 mg/mL | ~70 mg/mL | ~62 mg/mL | ~67 mg/mL | ~100 mg/mL | ~76 mg/mL | ~0.5 mg/mL | ~58 mg/mL | ~0.1 mg/mL |  | CO[C@H]1C[C@@H]2CC[C@@H](C)[C@@](O)(O2)C(=O)C(=O)N2CCCC[C@H]2C(=O)O[C@H]([C@H](C)C[C@@H]2CC[C@@H](OCCO)[C@H](OC)C2)CC(=O)[C@H](C)/C=C(\C)[C@@H](O)[C@@H](OC)C(=O)[C@H](C)C[C@H](C)/C=C/C=C/C=C/1C [Amorphous Everolimus, 40-O-(2-Hydroxyethyl)rapamycin] |
|  |  |  |  |  |  |  |  |  |  |  |  |  |  |  |  |  |  | about 25 times | CO[C@H]1C[C@@H]2CC[C@@H](C)[C@@](O)(O2)C(=O)C(=O)N2CCCC[C@H]2C(=O)O[C@H]([C@H](C)C[C@@H]2CC[C@@H](OCCO)[C@H](OC)C2)CC(=O)[C@H](C)/C=C(\C)[C@@H](O)[C@@H](OC)C(=O)[C@H](C)C[C@H](C)/C=C/C=C/C=C/1C [crystalline everolimus, 40-O-(2-Hydroxyethyl)rapamycin] |

Reference: US8669360B2, “Methods of converting amorphous drug substance into crystalline form” (Boston Scientific Scimed, Inc., priority 2011, dated 2014)
